# What was measured:
# [1] = molecular target: T1, human AhR protein (humanized AhR liver cytosol) (Homo sapiens, UniProt P35869); assay: photoaffinity ligand competition, hepatic cytosol; assay type: binding; details: competition with 2-azido-3-[125I]iodo-7,8-dibromodibenzo-p-dioxin (0.21 pmol, saturating), 150 μg liver protein, room temperature 20 min, then UV 402 nm
# T1 construct: human AhR expressed in liver of humanized transgenic mice, B6.Cg-Ahr^tm3.1Bra Tg (Alb-cre, Ttr-AhR)1GHP; hepatic cytosol, not purified
# T1 sequence (P35869 11-848): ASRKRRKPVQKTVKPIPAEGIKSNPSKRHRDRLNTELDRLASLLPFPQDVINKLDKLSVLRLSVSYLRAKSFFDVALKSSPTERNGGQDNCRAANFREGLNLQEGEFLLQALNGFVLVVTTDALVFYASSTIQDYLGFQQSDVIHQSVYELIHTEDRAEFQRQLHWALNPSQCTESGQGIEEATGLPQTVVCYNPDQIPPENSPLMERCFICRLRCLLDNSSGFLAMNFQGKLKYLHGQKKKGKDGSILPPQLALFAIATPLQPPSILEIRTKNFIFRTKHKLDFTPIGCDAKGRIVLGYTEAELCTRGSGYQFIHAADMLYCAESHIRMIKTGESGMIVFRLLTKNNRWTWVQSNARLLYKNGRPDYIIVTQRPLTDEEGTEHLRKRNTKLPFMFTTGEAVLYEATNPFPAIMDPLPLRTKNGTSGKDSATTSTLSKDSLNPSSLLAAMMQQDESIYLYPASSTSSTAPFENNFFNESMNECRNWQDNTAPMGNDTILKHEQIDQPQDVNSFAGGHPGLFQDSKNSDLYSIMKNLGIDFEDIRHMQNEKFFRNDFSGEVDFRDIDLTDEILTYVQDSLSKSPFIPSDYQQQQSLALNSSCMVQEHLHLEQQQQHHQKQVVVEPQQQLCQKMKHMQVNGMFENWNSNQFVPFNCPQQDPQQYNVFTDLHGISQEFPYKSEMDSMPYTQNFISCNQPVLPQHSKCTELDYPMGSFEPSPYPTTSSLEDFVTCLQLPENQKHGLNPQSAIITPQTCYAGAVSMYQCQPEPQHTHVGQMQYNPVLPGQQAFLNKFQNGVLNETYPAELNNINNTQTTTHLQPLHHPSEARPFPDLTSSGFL
# [2] = molecular target: T2, AhR (XRE-luciferase reporter assay) (Homo sapiens, UniProt P35869); assay: XRE-luciferase reporter assay in cells; assay type: cell-based; details: agonist
# T2 construct: with Aryl hydrocarbon receptor nuclear translocator
# T2 sequence (P35869 11-848): T1 sequence (P35869 11-848)
# [3] = molecular target: T1, human AhR protein (humanized AhR liver cytosol); assay: photoaffinity labelling, SDS-PAGE, gamma counting; assay type: binding; details: labelled compound; covalent after UV photolysis; 0.21 pmol per tube, 150 μg liver protein
Structure (SMILES),% photoaffinity label bound [1],EC50 [2] [µM],"photoaffinity labelling, SDS-PAGE, gamma counting [3]"
Nc1ccccc1-c1cc2ccccc2[nH]1 [2AI],2AI was able to out-compete the photoaffinity label bound to the human AhR protein,3.5,
"[N-]=[N+]=Nc1cc2c(cc1I)Oc1cc(Br)c(Br)cc1O2 [PAL, 2-azido-3-[125I]iodo-7,8-dibromodibenzo-p-dioxin]",,,Labeled AHR bands were excised and counted using a γ counter
